Test results taken from the supplement of paper PMC10307832.

Tests used:
Test in all cases: relative viability (nuclei count vs DMSO), 5 days (fraction); higher = more cells survive
FG-4592 + Decitabine = compound: Cc1nc(C(=O)NCC(=O)O)c(O)c2ccc(Oc3ccccc3)cc12 [FG-4592] + Nc1ncn([C@H]2C[C@H](O)[C@@H](CO)O2)c(=O)n1 [Decitabine] (partner 2 µM)
In short: (§1)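 Lung cancer cell lines in 1536-well plates were dosed by pin tool the day after seeding, either with one drug alone or with a fixed anchor-drug dose plus five library-drug doses (not always all listed) in √10 steps. After 5 days, cells were fixed and their nuclei stained in one step (final 0.05% Triton X-100, 1% formaldehyde, 1 ug/ml Hoechst), then counted on 4× images. Relative viability is the nuclei count in treated wells divided by that in vehicle wells. Values are medians of duplicate plates.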

FG-4592 + OSI-027 = compound: Cc1nc(C(=O)NCC(=O)O)c(O)c2ccc(Oc3ccccc3)cc12 [FG-4592] + COc1cccc2cc(-c3nc([C@H]4CC[C@H](C(=O)O)CC4)n4ncnc(N)c34)[nH]c12 [OSI-027] (partner 0.5 µM)
In short: as §1

FG-4592 + Olaparib = compound: Cc1nc(C(=O)NCC(=O)O)c(O)c2ccc(Oc3ccccc3)cc12 [FG-4592] + O=C(c1cc(Cc2n[nH]c(=O)c3ccccc23)ccc1F)N1CCN(C(=O)C2CC2)CC1 [Olaparib] (partner 8 µM)
In short: as §1

IU1-47 + Pemetrexed = compound: CC1=CC(=C(N1C2=CC=C(C=C2)Cl)C)C(=O)CN3CCCCC3 [IU1-47] + Nc1nc2[nH]cc(CCc3ccc(C(=O)N[C@@H](CCC(=O)O)C(=O)O)cc3)c2c(=O)[nH]1 [Pemetrexed] (partner 0.2 µM)
In short: as §1

| Cell Line | relative viability (FG-4592 + Decitabine; first compound 0.08 µM) | relative viability (FG-4592 + Decitabine; first compound 0.8 µM) | relative viability (FG-4592 + Decitabine; first compound 2.53 µM) | relative viability (FG-4592 + Decitabine; first compound 8 µM) | relative viability (FG-4592 + OSI-027; first compound 0.08 µM) | relative viability (FG-4592 + OSI-027; first compound 0.253 µM) | relative viability (FG-4592 + OSI-027; first compound 0.8 µM) | relative viability (FG-4592 + OSI-027; first compound 2.53 µM) | relative viability (FG-4592 + OSI-027; first compound 8 µM) | relative viability (FG-4592 + Olaparib; first compound 0.08 µM) | relative viability (FG-4592 + Olaparib; first compound 0.8 µM) | relative viability (FG-4592 + Olaparib; first compound 2.53 µM) | relative viability (FG-4592 + Olaparib; first compound 8 µM) | relative viability (IU1-47 + Pemetrexed; first compound 0.08 µM) | relative viability (IU1-47 + Pemetrexed; first compound 0.253 µM) | relative viability (IU1-47 + Pemetrexed; first compound 0.8 µM) | relative viability (IU1-47 + Pemetrexed; first compound 2.53 µM) | relative viability (IU1-47 + Pemetrexed; first compound 8 µM) | relative viability (FG-4592 + Decitabine; first compound 0.253 µM) | relative viability (FG-4592 + Olaparib; first compound 0.253 µM) |
| --- | --- | --- | --- | --- | --- | --- | --- | --- | --- | --- | --- | --- | --- | --- | --- | --- | --- | --- | --- | --- |
| HCC-78 | 0.666 | 0.694 | 0.652 | 0.562 | 0.346 | 0.307 | 0.406 | 0.357 | 0.362 | 0.717 | 0.788 | 0.759 | 0.733 | 0.898 | 0.889 | 0.929 | 0.865 | 0.862 |  |  |
| HCC-15 | 0.677 | 0.606 | 0.661 | 0.765 | 0.626 | 0.626 | 0.674 | 0.614 | 0.701 | 0.684 | 0.741 | 0.615 | 0.719 | 0.229 | 0.219 | 0.226 | 0.218 | 0.228 | 0.585 | 0.709 |
| EKVX | 0.325 | 0.287 | 0.319 | 0.341 | 0.626 | 0.649 | 0.718 | 0.663 | 0.73 | 0.748 | 0.721 | 0.901 | 0.905 | 0.407 | 0.406 | 0.423 |  | 0.453 | 0.368 | 0.844 |
| NCI-H2087 | 0.368 | 0.348 |  | 0.256 | 0.559 | 0.538 | 0.669 | 0.473 | 0.486 | 0.561 | 0.645 |  | 0.475 | 0.668 | 0.637 | 0.693 | 0.716 | 0.556 | 0.308 | 0.51 |
| LK-2 | 0.273 | 0.274 | 0.371 | 0.295 | 0.185 | 0.19 | 0.223 | 0.185 | 0.174 | 0.556 | 0.613 | 0.701 | 0.662 | 0.327 | 0.308 | 0.3 | 0.306 | 0.156 | 0.272 | 0.787 |
| NCI-H1437 | 0.576 | 0.606 | 0.632 | 0.534 | 0.907 | 0.812 | 0.862 | 0.667 | 0.506 | 0.581 | 0.679 | 0.651 | 0.6 | 0.336 | 0.336 | 0.314 | 0.308 | 0.311 | 0.512 | 0.602 |
| COR-L23 | 0.422 | 0.377 | 0.393 | 0.362 | 0.798 | 0.617 | 0.793 | 0.701 | 0.468 | 0.331 | 0.358 | 0.3 | 0.369 | 0.212 | 0.18 | 0.199 | 0.195 | 0.208 | 0.371 | 0.358 |
| SW 900 |  |  | 0.465 | 0.349 | 0.424 | 0.546 | 0.493 | 0.491 | 0.534 |  |  | 0.812 | 0.794 | 0.478 |  | 0.495 | 0.472 | 0.383 | 0.47 | 0.946 |
| NCI-H838 | 0.456 | 0.446 | 0.459 | 0.443 | 0.372 | 0.31 | 0.389 | 0.289 | 0.357 | 0.796 | 0.796 | 0.756 | 0.806 | 0.241 | 0.233 | 0.259 | 0.274 | 0.246 | 0.439 | 0.71 |
| NCI-H1648 | 0.549 |  | 0.416 | 0.635 | 0.275 | 0.285 | 0.302 | 0.258 | 0.28 | 0.712 |  | 0.483 | 1.43 | 0.776 | 0.888 | 1.01 | 0.644 | 0.494 | 0.484 | 0.647 |
| A-427 | 0.535 | 0.503 | 0.558 | 0.567 | 0.479 | 0.393 | 0.506 | 0.423 | 0.598 | 0.687 | 0.718 | 0.689 | 0.705 | 1.06 | 1 | 0.993 | 1 | 0.937 | 0.558 | 0.731 |
| NCI-H1792 | 0.508 |  | 0.525 | 0.484 | 0.803 | 0.69 | 0.794 | 0.575 | 0.735 | 0.487 |  | 0.457 | 0.497 | 0.529 | 0.817 | 0.789 | 0.877 | 0.35 | 0.485 | 0.432 |
| LCLC-97TM1 | 0.218 |  | 0.217 | 0.173 | 0.665 | 0.397 | 0.716 | 0.488 | 0.395 | 0.444 |  | 0.329 | 0.421 | 0.173 | 0.15 | 0.154 |  | 0.172 | 0.209 | 0.417 |
| LCLC-103H | 0.773 | 0.664 | 0.741 | 0.66 | 0.445 | 0.45 | 0.455 | 0.421 | 0.373 | 0.746 | 0.695 | 0.708 | 0.751 | 0.474 | 0.464 | 0.469 | 0.449 | 0.519 | 0.747 | 0.751 |
| PC-3 [JPC-3] | 0.836 |  | 0.844 | 0.911 | 0.674 | 0.75 | 0.79 | 0.662 | 0.681 | 1.1 |  | 1.1 | 1.12 | 1.13 | 1.12 | 1.04 | 0.774 | 1.07 | 0.767 | 0.975 |
| BEN | 0.649 | 0.555 | 0.738 | 0.607 | 0.222 | 0.287 | 0.315 | 0.313 | 0.299 | 1.13 | 1.07 | 1.02 | 0.956 | 0.732 | 0.765 | 0.899 | 0.523 | 0.674 | 0.651 | 0.99 |
| NCI-H1666 | 0.836 | 0.867 | 0.711 | 0.759 | 0.809 | 0.803 | 0.837 | 0.775 | 0.621 | 0.764 | 0.809 | 0.796 | 0.779 | 0.894 | 0.839 | 0.888 | 0.873 | 0.841 | 0.724 | 0.744 |
| LC-2-ad | 0.804 | 0.755 | 0.853 | 0.837 | 0.838 | 0.753 |  | 0.591 | 0.661 | 0.683 | 0.725 | 0.755 | 0.782 | 0.284 | 0.283 | 0.268 |  | 0.262 | 0.66 | 0.694 |
| SK-LU-1 | 0.66 | 0.671 | 0.582 | 0.476 | 0.3 | 0.177 | 0.349 | 0.345 | 0.239 | 0.322 | 0.491 | 0.444 | 0.472 | 0.981 | 1.05 | 1.03 | 1.02 | 0.887 | 0.55 | 0.396 |
| ChaGo-K-1 | 0.508 | 0.509 | 0.493 | 0.466 | 0.577 | 0.545 | 0.532 | 0.471 | 0.413 | 0.44 | 0.4 | 0.461 | 0.456 | 0.26 | 0.257 | 0.282 | 0.249 | 0.268 | 0.427 | 0.399 |
| COR-L 105 | 0.649 | 0.597 | 0.621 | 0.641 | 0.555 | 0.602 | 0.767 | 0.551 | 0.435 | 0.767 | 0.792 | 0.719 | 0.635 | 1.12 | 1.17 | 0.93 | 1.12 | 1.02 | 0.691 | 0.787 |
| NCI-H1975 | 0.378 | 0.426 | 0.406 | 0.404 | 0.693 | 0.605 | 0.75 | 0.652 | 0.614 | 0.786 | 0.883 | 0.849 | 0.721 | 0.278 | 0.289 | 0.297 | 0.299 | 0.255 | 0.363 | 0.747 |
| NCI-H1993 | 0.695 |  | 0.665 | 0.572 | 0.508 | 0.504 | 0.546 | 0.512 | 0.559 | 0.947 |  | 1.01 | 0.929 | 0.631 | 0.588 | 0.672 | 0.346 | 0.482 | 0.602 | 0.926 |
| RERF-LC-KJ | 0.811 | 0.76 | 0.81 | 0.667 | 0.606 | 0.503 | 0.565 | 0.505 | 0.567 | 0.853 | 0.861 | 0.996 | 0.894 | 0.503 | 0.454 | 0.523 | 0.389 | 0.479 | 0.697 | 0.913 |
| NCI-H23 | 0.322 | 0.334 | 0.265 | 0.267 | 0.612 | 0.517 | 0.488 | 0.325 | 0.439 | 0.34 | 0.365 | 0.321 | 0.296 | 0.608 |  | 0.59 | 0.708 | 0.692 | 0.268 | 0.333 |
| HCC-366 | 0.359 | 0.324 | 0.383 | 0.308 | 0.455 | 0.934 | 0.784 | 0.484 | 0.703 | 0.331 | 0.352 | 0.435 | 0.296 | 0.176 | 0.157 | 0.192 | 0.211 | 0.19 | 0.347 | 0.353 |
| EMC-BAC-2 | 1.01 |  | 1.02 | 0.942 | 0.338 | 0.407 | 0.339 | 0.333 | 0.344 | 0.469 | 0.456 | 0.49 | 0.492 | 0.458 | 0.436 | 0.556 | 0.459 | 0.468 | 0.962 | 0.491 |
| NCI-H2405 | 0.69 | 0.702 | 0.688 | 0.671 | 0.506 |  | 0.586 | 0.518 | 0.628 | 0.752 | 0.948 | 0.809 | 0.859 | 1.05 | 1.1 | 1.05 | 1.02 | 1.09 | 0.714 | 0.772 |
